Patent publication EP4800018A1, “PAN-KRAS INHIBITOR AND USE THEREOF IN MEDICINES” (Betta Pharmaceuticals Co., Ltd., priority 2023, dated 2025)

How the values were obtained:
[1] = target: T1, KRAS G12V-cRAF (Homo sapiens, UniProt P01116, G12V); assay: Cellular KRAS G12V-cRAF Binding Inhibition Assay (NanoBRET, AD293 stable cells); assay type: cell-based; settings: 3 h incubation, read-out: NanoBRET KRAS G12V
T1 construct: expressed in transfected cells
How it was run: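 Binding measured as BRET between NanoLuc and HaloTag-bound NanoBRET 618 ligand (added overnight) in stably expressing AD293 cells. Signals were converted to percent inhibition against max and blank wells and fitted for IC50.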

[2] = test system: KRAS-G12D mutant tumor cells AGS; assay: Cell Proliferation Inhibition Assay (AGS), Cell-titer GLO, 96 h; assay type: cell-based; settings: Homo sapiens, AGS, 96 h, AGS cells, 96 h incubation, Cell-titer GLO; read-out: AGS(G12D)
How it was run: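 Inhibition % was derived from CellTiter-Glo luminescence (max minus measured, over max minus blank) and fitted to give IC50. Cells were KRAS-G12D AGS in low-attachment wells, treated for 96 h at 37°C.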

[3] = target: T2, KRAS G12D-cRAF (Homo sapiens, UniProt P01116, G12D); assay: Cellular KRAS G12D-cRAF Binding Inhibition Assay (NanoBRET, AD293 stable cells); assay type: cell-based; settings: 3 h incubation, read-out: NanoBRET KRAS G12D
T2 construct: expressed in transfected cells
T2 sequence (P01116 1-188 isoform P01116-2 G12D): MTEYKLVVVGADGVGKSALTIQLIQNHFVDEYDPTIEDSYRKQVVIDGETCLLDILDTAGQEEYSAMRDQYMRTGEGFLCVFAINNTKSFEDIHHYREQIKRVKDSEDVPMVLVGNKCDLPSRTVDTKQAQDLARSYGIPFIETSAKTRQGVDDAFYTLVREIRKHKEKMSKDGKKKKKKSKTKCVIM
How it was run: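 IC50 values derive from fitted % inhibition, normalised to maximum signal and medium-only blank. The read-out is NanoBRET between KRAS G12D-NanoLuc (donor) and cRAF RBD-HaloTag labelled with the 618 ligand (acceptor), in live stably transfected AD293 cells at 1×10^4/well.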

[4] = PK Study of Compounds in Rats; assay type: in vivo, Male SD rats; settings: mean; for AUC(0-t): read-out: AUC0-t; for Cmax: read-out: C0/Cmax
Procedure: (§1) The test compound was mixed with the vehicle (10% DMSO/5% Solutol/85% physiological saline), vortexed and sonicated to prepare a clear 0.5 mg/mL intravenous injection solution. The test compound was mixed with the vehicle (20% PEG400/10% Solutol/70% pH 4.5 acetate buffer), vortexed and sonicated to prepare a clear 1 mg/mL oral solution. Male SD rats aged 6 to 7 weeks were selected and administered the test compound via intravenous (IV) and oral (PO) routes, respectively. Whole blood samples were collected at 5 min, 15 min, 30 min, 1 h, 2 h, 4 h, 7 h, and 24 h for the intravenous route, and at 15 min, 30 min, 1 h, 2 h, 4 h, 7 h, and 24 h for the oral route. Drug concentrations were analyzed by LC-MS/MS method, and pharmacokinetic parameters were calculated using Phoenix WinNonlin software (Pharsight, USA).

[5] = test system: KRAS-G12V mutant tumor cells SW620; assay: Cell Proliferation Inhibition Assay (SW620), Cell-titer GLO, 96 h; assay type: cell-based; settings: Homo sapiens, SW-620, 96 h, SW620 cells, 96 h incubation, Cell-titer GLO; read-out: SW620(G12V)
How it was run: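 Readout: Cell-titer GLO luminescence after 96 h at 37°C, converted to percent inhibition against 0.5% DMSO and blank controls, with IC50 from curve fit. Low-attachment SW620 cultures (1×10^3 cells/well) were dosed at 10000–0.03 nM final.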

[6] = PK Study of Compounds in Mice; assay type: in vivo, Female ICR mice; settings: mean; for Cmax: read-out: C0/Cmax
Procedure: as §1, with “0.2” for “0.5”, “Female ICR mice” for “Male SD rats”

[7] = PO 10 mg/kg vs IV 1 mg/kg (n=3)
[8] = male, SD, rat, whole blood, IV 1 mg/kg (n=3)
[9] = male, SD, rat, whole blood, PO 10 mg/kg (n=3)
[10] = female, ICR, mouse, whole blood, IV 1 mg/kg (n=3)
[11] = female, ICR, mouse, whole blood, PO 10 mg/kg (n=3)

T1 sequence (P01116 1-188 isoform P01116-2 G12V): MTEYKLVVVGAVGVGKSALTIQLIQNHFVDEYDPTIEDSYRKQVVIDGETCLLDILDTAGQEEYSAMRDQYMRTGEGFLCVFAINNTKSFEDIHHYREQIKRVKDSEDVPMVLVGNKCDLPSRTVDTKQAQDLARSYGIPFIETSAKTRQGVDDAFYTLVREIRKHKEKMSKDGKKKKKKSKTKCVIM

IC50 [1]: 8.4 nM
IC50 [2]: 0.37 nM
IC50 [3]: 2 nM
F [4, 7]: 32.4
clearance [4, 8]: 2.22 mL/min/kg
half-life [4, 8]: 7.22 h
AUC(0-t) [4, 8]: 6940 ng·h/mL
Cmax [4, 8]: 6060 ng/mL
Vd ([4]; male, SD, rat, whole blood, IV 1 mg/kg (n=3), read-out: Vss): 1.08 L/kg
AUC(0-t) [4, 9]: 22500 ng·h/mL
Cmax [4, 9]: 2060 ng/mL
Tmax ([4]; male, SD, rat, whole blood, PO 10 mg/kg (n=3), read-out: Tmax): 3.33 h
IC50 [5]: 0.09 nM
F [6, 7]: 54.0
AUC(0-t) [6, 10]: 2450 ng·h/mL
clearance [6, 10]: 5.75 mL/min/kg
half-life [6, 10]: 8.9 h
Cmax [6, 10]: 462 ng/mL
Vd ([6]; female, ICR, mouse, whole blood, IV 1 mg/kg (n=3), read-out: Vss): 4.66 L/kg
AUC(0-t) [6, 11]: 13200 ng·h/mL
Tmax [6, 11]: 2 h
Cmax [6, 11]: 1300 ng/mL
Structure (SMILES): CC1OCCCn2c(c3c4cc(ccc42)-c2csc(n2)CC(NC(=O)C2C(C)C2C)C(=O)N2NC(C(=O)OCC(C)(C)C3)C3CC2C3)-c2cc(N3CCN(C4COC4)CC3)cnc21 [Example 198, (1r,2R,3S)-N-((1^5S,6^4S,4S,Z)-1^2-(4-(oxetan-3-yl)piperazin-1-yl)-1^5,10,10-trimethyl-5,7-dioxo-1^8 ,1^9-dihydro-1^5H,1^7H-8-oxa-6^2,6^3-diaza-1(13,15)-pyrido[3',2':7,8][1,5]oxazonino[5,6-a]indola-2(4 ,2)-thiazola-6(2,4)-bicyclo[3.1.1]heptanacycloundecaphane-4-yl)-2,3-dimethylcyclopropane-1-ca rboxamide]
